Tested on: 253994-281-T-J1-PDC KRAS-mutant spheroids with HUVEC/MSC, viability
Assay: Anticancer human tumor 253994-281-T-J1-PDC patient-derived colorectal carcinoma cell line growth inhibition [KRAS2]
Conditions: for viability, T/C: stronger effect = lower value
Method in brief: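 Combination screen of spheroid viability in tumor-cell co-cultures with endothelial (HUVEC) and mesenchymal stem cell stroma. Each agent was tested in half-log dilutions, topping at clinical Cmax or at 10 microM without a known Cmax.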

[1] = curve of first compound, second compound 0.1 µM
[2] = curve of first compound, second compound 0.316 µM
[3] = curve of first compound, second compound 1 µM
[4] = curve of first compound, second compound 3.16 µM
[5] = curve of first compound, second compound 10 µM
[6] = second compound 0.1 µM, first compound 0.00316 µM
[7] = second compound 0.1 µM, first compound 0.01 µM
[8] = second compound 0.1 µM, first compound 0.0316 µM
[9] = second compound 0.1 µM, first compound 0.1 µM
[10] = second compound 0.1 µM, first compound 0.316 µM
[11] = second compound 0.1 µM, first compound 1 µM
[12] = second compound 0.316 µM, first compound 0.00316 µM
[13] = second compound 0.316 µM, first compound 0.01 µM
[14] = second compound 0.316 µM, first compound 0.0316 µM
[15] = second compound 0.316 µM, first compound 0.1 µM
[16] = second compound 0.316 µM, first compound 0.316 µM
[17] = second compound 0.316 µM, first compound 1 µM
[18] = second compound 1 µM, first compound 0.00316 µM
[19] = second compound 1 µM, first compound 0.01 µM
[20] = second compound 1 µM, first compound 0.0316 µM
[21] = second compound 1 µM, first compound 0.1 µM
[22] = second compound 1 µM, first compound 0.316 µM
[23] = second compound 1 µM, first compound 1 µM
[24] = second compound 3.16 µM, first compound 0.00316 µM
[25] = second compound 3.16 µM, first compound 0.01 µM
[26] = second compound 3.16 µM, first compound 0.0316 µM
[27] = second compound 3.16 µM, first compound 0.1 µM
[28] = second compound 3.16 µM, first compound 0.316 µM
[29] = second compound 3.16 µM, first compound 1 µM
[30] = second compound 10 µM, first compound 0.00316 µM
[31] = second compound 10 µM, first compound 0.01 µM
[32] = second compound 10 µM, first compound 0.0316 µM
[33] = second compound 10 µM, first compound 0.1 µM
[34] = curve of first compound, second compound 0.0316 µM
[35] = second compound 0.0316 µM, first compound 0.0316 µM
[36] = second compound 0.0316 µM, first compound 0.1 µM
[37] = second compound 0.0316 µM, first compound 0.316 µM
[38] = second compound 0.0316 µM, first compound 1 µM
[39] = second compound 0.0316 µM, first compound 3.16 µM
[40] = second compound 0.0316 µM, first compound 10 µM
[41] = second compound 0.1 µM, first compound 3.16 µM
[42] = second compound 0.1 µM, first compound 10 µM
[43] = second compound 0.316 µM, first compound 3.16 µM
[44] = second compound 0.316 µM, first compound 10 µM
[45] = second compound 1 µM, first compound 3.16 µM
[46] = second compound 1 µM, first compound 10 µM
[47] = second compound 3.16 µM, first compound 3.16 µM
[48] = second compound 3.16 µM, first compound 10 µM
[49] = second compound 0.1 µM, first compound 0.000316 µM
[50] = second compound 0.1 µM, first compound 0.001 µM
[51] = second compound 0.316 µM, first compound 0.000316 µM
[52] = second compound 0.316 µM, first compound 0.001 µM
[53] = second compound 1 µM, first compound 0.000316 µM
[54] = second compound 1 µM, first compound 0.001 µM
[55] = second compound 3.16 µM, first compound 0.000316 µM
[56] = second compound 3.16 µM, first compound 0.001 µM
[57] = second compound 10 µM, first compound 0.000316 µM
[58] = second compound 10 µM, first compound 0.001 µM
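Also: spheroids exposed to agents for seven days before readout.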
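For viability, T/C in this document: percent of DMSO vehicle control viability.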

COC(=O)c1ccc2c(C(=Nc3ccc(N(C)C(=O)CN4CCN(C)CC4)cc3)c3ccccc3)c(O)[nH]c2c1
viability, T/C (compound 0.0316 µM): 96.2% [middle of 5 runs]
viability, T/C (compound 0.1 µM): 90.5% [middle of 5 runs]
viability, T/C (compound 0.316 µM): 95% [middle of 5 runs]
viability, T/C (compound 1 µM): 92.3% [middle of 5 runs]
viability, T/C (compound 3.16 µM): 85.9% [middle of 5 runs]

CCN1CCN(Cc2ccc(Nc3ncc(F)c(-c4cc(F)c5nc(C)n(C(C)C)c5c4)n3)nc2)CC1 + CNCc1ccccc1-c1csc(C(C)Nc2nc(C)nc3cc(OC)c(OC)cc23)c1
IC50 [1]: 683 nM
IC50 [2]: 530 nM
IC50 [3]: 420 nM
IC50 [4]: < 3.16 nM
IC50 [5]: < 3.16 nM
viability, T/C [6]: 97.4%
viability, T/C [7]: 82.5%
viability, T/C [8]: 84.1%
viability, T/C [9]: 78.7%
viability, T/C [10]: 71.4%
viability, T/C [11]: 39.8%
viability, T/C [12]: 101%
viability, T/C [13]: 78%
viability, T/C [14]: 73.5%
viability, T/C [15]: 85.5%
viability, T/C [16]: 64.7%
viability, T/C [17]: 31.4%
viability, T/C [18]: 82.7%
viability, T/C [19]: 82.2%
viability, T/C [20]: 78.2%
viability, T/C [21]: 76.3%
viability, T/C [22]: 62.5%
viability, T/C [23]: 13.5%
viability, T/C [24]: 44.8%
viability, T/C [25]: 37%
viability, T/C [26]: 36.4%
viability, T/C [27]: 20.3%
viability, T/C [28]: 11.9%
viability, T/C [29]: 0.18%
viability, T/C [30]: 0.2%
viability, T/C [31]: 0.39%
viability, T/C [32]: 0.19%
viability, T/C [33]: 0.14%
viability, T/C (second compound 10 µM, first compound 0.316 µM): 0.34%
viability, T/C (second compound 10 µM, first compound 1 µM): 0.22%

CC1OCC2(CCN(c3cnc(Sc4ccnc(N)c4Cl)c(N)n3)CC2)C1N (stereo unspecified) + C=CC(=O)N1CCN(c2nc(OCC3CCCN3C)nc3c2CCN(c2cccc4cccc(C)c24)C3)CC1CC#N
IC50 [34]: 8570 nM
IC50 [1]: > 10000 nM
IC50 [2]: 6830 nM
IC50 [3]: 5050 nM
IC50 [4]: 82.4 nM
viability, T/C [35]: 112%
viability, T/C [36]: 91.7%
viability, T/C [37]: 87.5%
viability, T/C [38]: 81.4%
viability, T/C [39]: 65.4%
viability, T/C [40]: 45.3%
viability, T/C [8]: 87.4%
viability, T/C [9]: 100%
viability, T/C [10]: 76.3%
viability, T/C [11]: 78.5%
viability, T/C [41]: 66.1%
viability, T/C [42]: 50.4%
viability, T/C [14]: 92.3%
viability, T/C [15]: 100%
viability, T/C [16]: 84.3%
viability, T/C [17]: 72.6%
viability, T/C [43]: 60.9%
viability, T/C [44]: 44.9%
viability, T/C [20]: 79.3%
viability, T/C [21]: 82.3%
viability, T/C [22]: 76.7%
viability, T/C [23]: 67.4%
viability, T/C [45]: 56.5%
viability, T/C [46]: 41.4%
viability, T/C [26]: 57.2%
viability, T/C [27]: 48.5%
viability, T/C [28]: 39.8%
viability, T/C [29]: 27%
viability, T/C [47]: 20.6%
viability, T/C [48]: 9.67%

CCNC(=O)CC1N=C(c2ccc(Cl)cc2)c2cc(OC)ccc2-n2c(C)nnc21 (stereo unspecified) + C=CC(=O)N1CCN(c2nc(OCC3CCCN3C)nc3c2CCN(c2cccc4cccc(C)c24)C3)CC1CC#N
IC50 [34]: > 10000 nM
IC50 [1]: > 10000 nM
IC50 [2]: > 10000 nM
IC50 [3]: > 10000 nM
IC50 [4]: 865 nM
viability, T/C [35]: 101%
viability, T/C [36]: 99.7%
viability, T/C [37]: 88.3%
viability, T/C [38]: 97%
viability, T/C [39]: 107%
viability, T/C [40]: 85.9%
viability, T/C [8]: 92.2%
viability, T/C [9]: 110%
viability, T/C [10]: 96.9%
viability, T/C [11]: 107%
viability, T/C [41]: 97.9%
viability, T/C [42]: 86.5%
viability, T/C [14]: 107%
viability, T/C [15]: 104%
viability, T/C [16]: 106%
viability, T/C [17]: 91.4%
viability, T/C [43]: 92.8%
viability, T/C [44]: 90.7%
viability, T/C [20]: 98.4%
viability, T/C [21]: 108%
viability, T/C [22]: 95.8%
viability, T/C [23]: 91%
viability, T/C [45]: 93%
viability, T/C [46]: 85%
viability, T/C [26]: 84%
viability, T/C [27]: 96.2%
viability, T/C [28]: 83.2%
viability, T/C [29]: 25.9%
viability, T/C [47]: 65.9%
viability, T/C [48]: 43.8%

CCNC(=O)CC1N=C(c2ccc(Cl)cc2)c2cc(OC)ccc2-n2c(C)nnc21 (stereo unspecified)
viability, T/C (compound 0.0316 µM): 105% [middle of 5 runs]
viability, T/C (compound 0.1 µM): 103% [middle of 5 runs]
viability, T/C (compound 0.316 µM): 95.6% [middle of 5 runs]
viability, T/C (compound 1 µM): 96.3% [middle of 5 runs]
viability, T/C (compound 3.16 µM): 97.5% [middle of 5 runs]
viability, T/C (compound 10 µM): 85.7% [middle of 5 runs]
IC50 (curve of compound): > 10000 nM

CN(C)C/C=C/C(=O)Nc1cc2c(Nc3ccc(F)c(Cl)c3)ncnc2cc1O[C@H]1CCOC1 + COc1cc2nc(C)nc(NC(C)c3cc(N)cc(C(F)(F)F)c3)c2cc1OC1CCOC1
IC50 [1]: > 100 nM
IC50 [2]: > 100 nM
IC50 [3]: > 100 nM
IC50 [4]: > 100 nM
IC50 [5]: > 100 nM
viability, T/C [49]: 100%
viability, T/C [50]: 98.2%
viability, T/C [6]: 108%
viability, T/C [7]: 85.8%
viability, T/C [8]: 90%
viability, T/C [9]: 67.7%
viability, T/C [51]: 86.3%
viability, T/C [52]: 97.8%
viability, T/C [12]: 86.8%
viability, T/C [13]: 81.5%
viability, T/C [14]: 73.5%
viability, T/C [15]: 57.8%
viability, T/C [53]: 84.4%
viability, T/C [54]: 88.7%
viability, T/C [18]: 116%
viability, T/C [19]: 90%
viability, T/C [20]: 91.2%
viability, T/C [21]: 69.8%
viability, T/C [55]: 94.8%
viability, T/C [56]: 87.4%
viability, T/C [24]: 81.3%
viability, T/C [25]: 86.8%
viability, T/C [26]: 61.2%
viability, T/C [27]: 55.2%
viability, T/C [57]: 83.5%
viability, T/C [58]: 84.1%
viability, T/C [30]: 82.9%
viability, T/C [31]: 79.2%
viability, T/C [32]: 68.8%
viability, T/C [33]: 54.5%

COc1cc(OC)cc(N(CCNC(C)C)c2ccc3ncc(-c4cnn(C)c4)nc3c2)c1
viability, T/C (compound 0.0316 µM): 98.1% [middle of 5 runs]
viability, T/C (compound 0.1 µM): 92% [middle of 5 runs]
viability, T/C (compound 0.316 µM): 92.8% [middle of 5 runs]
viability, T/C (compound 1 µM): 88.1% [middle of 5 runs]
viability, T/C (compound 3.16 µM): 89.4% [middle of 5 runs]

COc1cc2nc(C)nc(NC(C)c3cc(N)cc(C(F)(F)F)c3)c2cc1OC1CCOC1 (stereo unspecified)
viability, T/C (compound 0.316 µM): 86.9% [middle of 17 runs]
IC50 (compound alone, run of 08/19/2021): > 10000 nM
IC50 (compound alone, run of 08/26/2021): > 10000 nM
IC50 (compound alone, run of 09/02/2021): > 10000 nM

Cn1ncnc1[C@H]1c2n[nH]c(=O)c3cc(F)cc(c23)N[C@@H]1c1ccc(F)cc1 + CNCc1ccccc1-c1csc(C(C)Nc2nc(C)nc3cc(OC)c(OC)cc23)c1
IC50 [1]: > 100 nM
IC50 [2]: > 100 nM
IC50 [3]: > 100 nM
IC50 [4]: < 0.316 nM
IC50 [5]: < 0.316 nM
viability, T/C [49]: 103%
viability, T/C [50]: 108%
viability, T/C [6]: 114%
viability, T/C [7]: 84.5%
viability, T/C [8]: 110%
viability, T/C [9]: 99.8%
viability, T/C [51]: 93.2%
viability, T/C [52]: 96.4%
viability, T/C [12]: 105%
viability, T/C [13]: 94.5%
viability, T/C [14]: 108%
viability, T/C [15]: 79.5%
viability, T/C [53]: 94.4%
viability, T/C [54]: 91.9%
viability, T/C [18]: 87.4%
viability, T/C [19]: 94.3%
viability, T/C [20]: 92.3%
viability, T/C [21]: 78.5%
viability, T/C [55]: 28.7%
viability, T/C [56]: 41.5%
viability, T/C [24]: 30.3%
viability, T/C [25]: 38.9%
viability, T/C [26]: 28.2%
viability, T/C [27]: 34.9%
viability, T/C [57]: 0.15%
viability, T/C [58]: 0.19%
viability, T/C [30]: 0.15%
viability, T/C [31]: 0.14%
viability, T/C [32]: 0.15%
viability, T/C [33]: 0.24%
